Measurements reported in patent publication US20150073055A1, “USE OF MODAFINIL IN THE TREATMENT OF COCAINE ADDICTS” (DEBREGEAS ET ASSOCIES PHARMA, priority 2012, published 2015).

Key:
[1] = Solubility in supercritical CO2 or another supercritical solvent; type: physicochemical
Description: A method for a novel formulation being the object of the present invention, uses the technology of supercritical CO2 based on the solvent power of CO2 which may be modulated at will according to the pressure and temperature conditions which are applied to it. In the supercritical state (more than 74 bars and 31° C.), CO2 has very particular properties. The obtained fluid is characterized by great diffusivity (of the order of that of gases), which gives it good diffusion capability, and a high density which provides it with significant transport and extraction capability.
A supercritical fluid has another advantage over other solvents: its solubility changes depending on whether its temperature or its pressure is varied. Thus it is possible to ensure that it is a solvent for certain substances at a given instant, and no longer for one at the following instant. This facilitates recovery of the substance which was dissolved.
The following step consists of spraying the dissolved active ingredient on an inert support, and then of studying the grain size of the obtained particles as well as the crystalline form of the same particles.
Different parameters were then modified: • changing the inert support (anhydrous lactose replaced with mannitol), • increasing the loading level up to 30% of active ingredient load, • using S modafinil, • a supercritical solvent other than CO2 . […]

[2] = cited from earlier work
[3] = crystalline white powder, cited from earlier work
[4] = estimated; absolute bioavailability was not able to be determined; cited from earlier work

Structure (SMILES): NC(=O)C[S+]([O-])C(c1ccccc1)c1ccccc1 (racemic) [Modafinil, 2-[(diphenylmethyl)sulfinyl]acetamide]
- solubility in CO2 [1]: acceptable solubility
- elimination half-life ([2]; in humans): about 14 hours
- solubility in acetone ([3]; acetone): partly soluble
- solubility in methanol ([3]; methanol): partly soluble
- solubility in water ([3]; water): practically insoluble
- bioavailability [4]: about 40%

Structure (SMILES): NC(=O)C[S@@+]([O-])C(c1ccccc1)c1ccccc1 (single isomer, unassigned) [enantiomer R]
- AUC (area under the curve) compared with the racemic form ([2]; after administration): greater AUC (area under the curve) than the racemic form
- variability of plasma levels compared with the racemic form ([2]; after administration): less variability of plasma levels
